Results published in ChEMBL document CHEMBL1201862, “PubChem BioAssay data set” (2004).
Active and inactive are the calls of the source.

Assays:
[1] = intracellular Trypanosoma cruzi inhibitors in host cells – cell-based, plate reader, cherry-pick samples, set 3, dose response (AID 651818); format: functional;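 further: compounds incubated with infected cells for about four days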
Paired box protein Pax-8 = Paired box protein Pax-8 (Homo sapiens, UniProt Q06710); assay: PAX8 transcriptional activity inhibition in RMG-I – RMG-I cells, luciferase, cherry-pick, dose response (AID 687027); format: functional, cell-based;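 further: luciferase reporter driven by Pax8 target thyroperoxidase promoter measured by SteadyGlo luminescence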
Chain of Paired box protein Pax-8 (Q06710 whole entry): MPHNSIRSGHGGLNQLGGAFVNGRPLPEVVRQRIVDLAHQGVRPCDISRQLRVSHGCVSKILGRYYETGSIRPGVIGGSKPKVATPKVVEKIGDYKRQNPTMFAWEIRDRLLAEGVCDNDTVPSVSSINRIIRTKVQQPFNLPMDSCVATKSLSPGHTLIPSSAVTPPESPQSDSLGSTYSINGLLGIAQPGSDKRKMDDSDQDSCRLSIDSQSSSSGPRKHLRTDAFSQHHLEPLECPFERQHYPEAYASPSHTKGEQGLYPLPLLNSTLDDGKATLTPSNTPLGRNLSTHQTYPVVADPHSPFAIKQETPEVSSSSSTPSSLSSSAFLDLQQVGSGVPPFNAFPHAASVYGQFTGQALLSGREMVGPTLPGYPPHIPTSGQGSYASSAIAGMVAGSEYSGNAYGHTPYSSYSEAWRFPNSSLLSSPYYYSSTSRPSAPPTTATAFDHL

[2] = Luminescence Cell-Based Dose Retest to Confirm Inhibitors of Cancer Stem Cells. [Related pubchem assays (depositor defined):AID2717, AID2721]; format: functional; conditions: Homo sapiens
[3] = target: T1, Methionyl-tRNA synthetase, putative (Trypanosoma brucei brucei, UniProt Q38C91); format: functional, Trypanosoma brucei brucei strain 927/4 GUTat10.1
T1 sequence (Q38C91 whole entry): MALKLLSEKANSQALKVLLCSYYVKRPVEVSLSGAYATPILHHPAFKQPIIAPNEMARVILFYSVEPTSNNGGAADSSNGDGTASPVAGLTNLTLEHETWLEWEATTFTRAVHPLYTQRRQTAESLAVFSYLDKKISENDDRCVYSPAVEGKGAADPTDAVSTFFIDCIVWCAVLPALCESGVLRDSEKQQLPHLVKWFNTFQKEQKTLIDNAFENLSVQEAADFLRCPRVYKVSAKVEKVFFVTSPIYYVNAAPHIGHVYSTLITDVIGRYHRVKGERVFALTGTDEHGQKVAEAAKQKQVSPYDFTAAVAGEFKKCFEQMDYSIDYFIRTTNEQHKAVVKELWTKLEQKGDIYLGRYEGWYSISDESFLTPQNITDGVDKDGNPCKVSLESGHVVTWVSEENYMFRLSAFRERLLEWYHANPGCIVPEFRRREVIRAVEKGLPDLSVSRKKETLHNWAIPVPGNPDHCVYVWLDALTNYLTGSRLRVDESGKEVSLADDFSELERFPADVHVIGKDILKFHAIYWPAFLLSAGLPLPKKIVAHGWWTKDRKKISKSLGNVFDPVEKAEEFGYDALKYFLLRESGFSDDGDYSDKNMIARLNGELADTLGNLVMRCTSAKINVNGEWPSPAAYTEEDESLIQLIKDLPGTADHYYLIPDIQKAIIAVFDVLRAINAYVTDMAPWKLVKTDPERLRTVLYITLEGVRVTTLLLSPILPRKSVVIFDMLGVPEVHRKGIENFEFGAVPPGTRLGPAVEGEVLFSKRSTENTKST

[4] = target: T1, Methionyl-tRNA synthetase, putative; format: functional, Trypanosoma brucei brucei strain 927/4 GUTat10.1; remark: listed apart in the source
[5] = Counterscreen for inhibitors of Trypanosoma brucei methionyl tRNA synthetase (MetRS): Luminescence-based cell-based high throughput dose response assay to identify compounds that are cytotoxic to Jurkat human T lymphocyte cells.; format: functional
Steroidogenic factor 1 = Steroidogenic factor 1 (Homo sapiens, UniProt Q13285); assay: Counterscreen for inverse agonists of the liver receptor homolog-1 (LRH-1; NR5A2): Luminescence-based cell-based high throughput dose response assay to identify inverse agonists of the Steroidogenic Factor 1 Nuclear Receptor (SF1; NR5A1).; format: functional
Chain of Steroidogenic factor 1 (Q13285 whole entry): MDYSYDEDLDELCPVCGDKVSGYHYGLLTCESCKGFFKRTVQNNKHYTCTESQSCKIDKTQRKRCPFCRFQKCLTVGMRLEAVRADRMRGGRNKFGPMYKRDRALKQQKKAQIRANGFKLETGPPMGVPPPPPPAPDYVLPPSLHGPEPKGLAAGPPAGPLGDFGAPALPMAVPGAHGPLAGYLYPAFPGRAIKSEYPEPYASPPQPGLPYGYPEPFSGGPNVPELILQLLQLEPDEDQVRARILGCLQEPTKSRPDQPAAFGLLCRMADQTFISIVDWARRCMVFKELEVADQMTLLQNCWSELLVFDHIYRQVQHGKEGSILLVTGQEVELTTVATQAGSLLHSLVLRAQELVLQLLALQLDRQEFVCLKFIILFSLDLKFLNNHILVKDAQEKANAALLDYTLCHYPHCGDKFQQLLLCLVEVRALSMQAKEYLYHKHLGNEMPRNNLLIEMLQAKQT

[6] = target: Nuclear receptor subfamily 5 group A member 2 (Homo sapiens, UniProt O00482); format: functional, cell-based;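 further: HEK293T cells transfected with LRH-1 and a StAR promoter luciferase reporter; potency for inhibitors that lower LRH-1 driven reporter light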
Chain of Nuclear receptor subfamily 5 group A member 2 (O00482 whole entry): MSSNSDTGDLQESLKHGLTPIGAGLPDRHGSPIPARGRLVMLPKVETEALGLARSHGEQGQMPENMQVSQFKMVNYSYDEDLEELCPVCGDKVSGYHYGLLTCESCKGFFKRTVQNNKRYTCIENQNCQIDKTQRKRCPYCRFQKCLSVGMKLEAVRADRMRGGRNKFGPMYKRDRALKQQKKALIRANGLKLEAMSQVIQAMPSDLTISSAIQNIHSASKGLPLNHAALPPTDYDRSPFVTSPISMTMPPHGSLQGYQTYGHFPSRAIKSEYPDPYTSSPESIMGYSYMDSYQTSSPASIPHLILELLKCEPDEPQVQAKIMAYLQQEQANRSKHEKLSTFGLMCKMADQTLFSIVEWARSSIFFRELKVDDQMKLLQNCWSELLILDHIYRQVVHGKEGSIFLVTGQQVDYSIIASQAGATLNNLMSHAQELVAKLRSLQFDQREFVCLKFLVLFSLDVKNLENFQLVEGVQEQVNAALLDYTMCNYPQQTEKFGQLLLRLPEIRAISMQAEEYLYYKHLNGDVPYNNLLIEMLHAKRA

[7] = nonselective StAR promoter luciferase inhibitors – cell-based, luminescence, luciferase reporter, counter-screen for LRH-1 inverse agonist project, dose response (AID 651969); format: functional
[8] = target: T2, Adenosylmethionine-8-amino-7-oxononanoate aminotransferase (Mycobacterium tuberculosis, UniProt P9WQ81); assay: Mycobacterium tuberculosis BioA enzyme inhibitor Measured in Biochemical System Using Plate Reader - 2163-02_Inhibitor_Dose_CherryPick_Activity.; format: functional, Mycobacterium tuberculosis UT205
T2 sequence (P9WQ81 whole entry): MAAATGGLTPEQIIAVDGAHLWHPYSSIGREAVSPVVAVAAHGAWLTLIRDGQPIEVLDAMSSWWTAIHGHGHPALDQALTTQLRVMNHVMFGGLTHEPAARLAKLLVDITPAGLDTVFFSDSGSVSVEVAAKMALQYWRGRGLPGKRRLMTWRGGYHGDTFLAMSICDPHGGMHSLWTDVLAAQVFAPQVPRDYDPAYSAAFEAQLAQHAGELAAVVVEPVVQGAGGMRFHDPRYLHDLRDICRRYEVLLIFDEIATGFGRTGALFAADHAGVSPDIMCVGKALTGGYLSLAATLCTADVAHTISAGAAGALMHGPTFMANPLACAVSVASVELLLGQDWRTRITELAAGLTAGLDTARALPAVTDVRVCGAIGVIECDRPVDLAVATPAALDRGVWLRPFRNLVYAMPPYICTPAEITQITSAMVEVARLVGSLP

[9] = activation of miR-122 Renilla sensor silencing – cell-based, Huh7 psiCHECK-miR122, Renilla luciferase, cherry-picked, dose response (AID 651956); format: functional;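 further: huh7 hepatoma cells stably carrying a psiCHECK-2 miR-122 sensor plasmid; renilla luciferase signal reporting endogenous miR-122 activity after 48 h compound exposure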
[10] = A549 cell cytotoxicity, dose response, cytotoxicity control, plate reader, cherry-pick, antagonist series (AID 743412); format: functional, cell-based
[11] = blockade of melanocortin 4 receptor signaling – cell-based, plate reader, cherry pick, counter-screen for LGR2 antagonist project, dose response (AID 743444); format: functional;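 further: transfected HEK 293 cells stimulated with alpha-MSH peptide; potency of inhibitors of the alpha-MSH evoked signal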
[12] = blockers of bursicon-stimulated LGR2 cAMP reporter – cell-based, HEK293, CRE-luciferase reporter, cherry pick, set 2, dose response (AID 743343); format: functional;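 further: transfected cells were stimulated with diluted bursicon conditioned medium after compound addition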
[13] = target: T3, Fructose-bisphosphate aldolase (Mycobacterium tuberculosis, UniProt P9WQA3); assay: Fluorescence-based biochemical high throughput dose response assay for inhibitors of the fructose-bisphosphate aldolase (FBA) of M. tuberculosis.; format: functional
T3 sequence (P9WQA3 whole entry): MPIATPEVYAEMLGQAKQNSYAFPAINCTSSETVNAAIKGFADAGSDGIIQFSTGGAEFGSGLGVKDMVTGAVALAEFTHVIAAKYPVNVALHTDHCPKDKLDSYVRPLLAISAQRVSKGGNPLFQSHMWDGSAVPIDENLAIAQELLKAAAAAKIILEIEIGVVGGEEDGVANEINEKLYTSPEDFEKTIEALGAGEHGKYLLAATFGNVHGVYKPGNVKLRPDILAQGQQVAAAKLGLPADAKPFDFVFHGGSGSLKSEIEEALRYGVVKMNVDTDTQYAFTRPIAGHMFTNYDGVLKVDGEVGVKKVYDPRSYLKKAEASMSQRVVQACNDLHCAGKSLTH

cells [14] = format: functional, cell-based
cells [15] = format: functional, cell-based; remark: listed apart in the source
[16] = Luminescence-based cell-based high throughput dose response assay to identify activators of the DAF-12 from the parasite S. stercoralis (ssDAF-12).; format: functional
[17] = target: T4, Oxysterols receptor LXR-beta (Homo sapiens, UniProt P55055); format: functional, cell-based;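 further: agonist activity at LXR measured by a cell-based luminescence readout across a dose range, run as a counterscreen for daf-12 agonists; HEK293 cells with Gal4-LXR fusion and GAL4-driven luciferase reporter; potency for activation of Gal4-LXR reporter so compounds are agonists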
T4 sequence (P55055 whole entry): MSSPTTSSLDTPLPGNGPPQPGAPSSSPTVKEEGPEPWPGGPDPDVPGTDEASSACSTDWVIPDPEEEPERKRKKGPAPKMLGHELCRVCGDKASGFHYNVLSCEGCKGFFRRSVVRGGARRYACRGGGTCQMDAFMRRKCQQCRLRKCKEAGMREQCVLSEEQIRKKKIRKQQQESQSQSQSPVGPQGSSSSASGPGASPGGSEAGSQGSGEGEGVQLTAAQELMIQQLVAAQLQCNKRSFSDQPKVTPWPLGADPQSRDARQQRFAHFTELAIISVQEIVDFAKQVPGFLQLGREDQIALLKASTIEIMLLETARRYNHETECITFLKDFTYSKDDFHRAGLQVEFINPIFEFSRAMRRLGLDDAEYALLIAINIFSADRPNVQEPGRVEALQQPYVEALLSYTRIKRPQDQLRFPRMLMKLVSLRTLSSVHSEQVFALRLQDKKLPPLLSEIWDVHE

Protein skinhead-1 = target: T5, Protein skinhead-1 (Caenorhabditis elegans, UniProt P34707); format: functional
T5 sequence (P34707 whole entry): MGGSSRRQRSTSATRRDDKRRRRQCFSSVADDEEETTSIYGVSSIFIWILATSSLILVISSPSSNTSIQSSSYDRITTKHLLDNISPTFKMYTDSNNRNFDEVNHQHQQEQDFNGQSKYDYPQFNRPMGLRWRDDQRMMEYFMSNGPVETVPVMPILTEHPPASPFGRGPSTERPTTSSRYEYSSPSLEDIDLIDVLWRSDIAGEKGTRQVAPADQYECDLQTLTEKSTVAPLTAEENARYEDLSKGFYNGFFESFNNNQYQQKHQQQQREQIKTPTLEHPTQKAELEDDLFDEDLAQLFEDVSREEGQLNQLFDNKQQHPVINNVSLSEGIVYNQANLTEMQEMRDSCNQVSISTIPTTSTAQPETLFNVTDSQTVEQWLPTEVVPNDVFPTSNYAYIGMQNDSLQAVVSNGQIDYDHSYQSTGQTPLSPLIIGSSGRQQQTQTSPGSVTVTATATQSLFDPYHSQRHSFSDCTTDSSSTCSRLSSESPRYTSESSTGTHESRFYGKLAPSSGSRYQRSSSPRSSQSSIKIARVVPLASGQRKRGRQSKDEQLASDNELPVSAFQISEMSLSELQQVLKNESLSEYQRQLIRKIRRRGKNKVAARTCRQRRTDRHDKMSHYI

[18] = general mammalian cell viability loss – inhibitor set, cherry-pick, set 2, cytotoxicity control for miR-122 modulator project, dose response (AID 720697); format: functional, cell-based

C[C@@H]1CN([C@@H](C)CO)C(=O)Cc2cc(NC(=O)Nc3ccc(C(F)(F)F)cc3)ccc2O[C@@H]1CN(C)S(=O)(=O)c1ccc(Cl)cc1
AC50 [1]: 3.51 µM (active) | AC50 (Paired box protein Pax-8): 10.3 µM (active) | AC50 [2]: 1.28 µM (active)

OC(c1cccc(Cl)c1)c1nc(-c2ccc3ccccc3c2)c[nH]1 (centres undefined)
IC50 [3]: 5.6 µM (active) | IC50 [4]: 14.2 µM (inactive) | IC50 [5]: 83.3 µM (inactive)

Cc1no[n+]([O-])c1COc1ccc(/C=N/n2nnnc2N)cc1
IC50 (Steroidogenic factor 1): 12 µM (inactive) | IC50 [6]: 35.9 µM (inactive) | IC50 [7]: 35.9 µM (inactive)

CCCN(CC(=O)Nc1ccc(C(N)=O)cc1)CC(=O)Nc1ccccc1C
IC50 (Steroidogenic factor 1): 2.88 µM (active) | IC50 [6]: 5.11 µM (active) | IC50 [7]: 24.9 µM (inactive)

CCN(CC)S(=O)(=O)c1ccc(NC(=O)c2ccc(Cl)nc2)cc1
AC50 [8]: 6.89 µM (active)

Cc1noc(C)c1NC(=O)N(C)C[C@@H]1Oc2cc(C#CCC3CCCC3)ccc2S(=O)(=O)N([C@@H](C)CO)C[C@@H]1C
AC50 [9]: 18.9 µM (active)

COc1ccc(-c2cc(C(=O)Nc3cccc(O)c3)no2)cc1
AC50 [10]: > 52 µM (inactive) | AC50 [11]: 7.86 µM (active) | AC50 [12]: 9.77 µM (active)

CN(C(=O)CSc1nc2ccc(Cl)cc2[nH]1)C1CCS(=O)(=O)C1 (centres undefined)
IC50 [3]: 21.7 µM (inactive) | IC50 [4]: 64.5 µM (inactive)

COc1ccc2oc(=N)c(-c3nnc4n3CCCCC4)cc2c1
IC50 [13]: 4.68 µM (active)

COc1ccccc1CCNCc1cc2c(cc1[N+](=O)[O-])OCO2
EC50 (cells [14]): > 29.9 µM (inactive) | IC50 (cells [15]): > 29.9 µM (inactive)

Cc1cc(OCC(=O)NCC(O)c2ccccc2)c2c(C)cc(=O)oc2c1 (centres undefined)
IC50 [13]: 1.26 µM (active)

CN(C(=O)CSc1nc2cc(Cl)ccc2[nH]1)C1CCS(=O)(=O)C1 (centres undefined)
IC50 [5]: 83.2 µM (inactive)

Cc1noc(C)c1S(=O)(=O)Nc1ccc2c(c1)C(=O)N([C@H](C)CO)C[C@H](C)[C@H](CN(C)C(=O)Nc1ccc(C(F)(F)F)cc1)O2
AC50 [1]: 4.97 µM (active)

CC(=O)c1ccc2c3c(cccc13)C(=O)N(CCc1ccccc1)C2=O
IC50 [16]: > 67.5 µM (inactive) | EC50 (cells [14]): > 29.9 µM (inactive) | IC50 (cells [15]): > 29.9 µM (inactive)

Cc1ccc(SCCSc2ncccn2)cc1
EC50 [17]: > 67.5 µM (inactive)

COc1ccc(CNCCC(c2ccc(OC)cc2)c2ccccc2OC)cc1 (centres undefined)
IC50 (Protein skinhead-1): > 100 µM (inactive) | AC50 [18]: 3.94 µM (active)

C=C(C)n1c(=O)n(Cc2ccccc2C)c2ccccc21
AC50 [8]: 1.32 µM (active)

COc1ccc2c(c1)cc(C(=O)N[C@@H](Cc1ccccc1)C(=O)N[C@@H](C)C(=O)O)n2C
IC50 [13]: 1.29 µM (active)

C[C@H](CO)N1C[C@H](C)[C@H](CN(C)Cc2ccc(C(=O)Nc3ccccc3N)cc2)Oc2c(NS(=O)(=O)c3cccs3)cccc2C1=O
AC50 [1]: 1.87 µM (active)

COC(=O)C1C(=O)C=C(Nc2ccc(F)cc2)CC1c1ccc(OC)cc1 (centres undefined)
AC50 [8]: 1.01 µM (active)

Cc1cccc(NC(=O)Nc2ccc3c(c2)C(=O)N(C)[C@@H]2CC[C@@H](CC(=O)NCc4ccccc4Cl)O[C@H]2CO3)c1
AC50 [9]: 3.32 µM (active)

CCOc1ccc(NC(=O)COC(=O)C2CCC(=O)N2)c([N+](=O)[O-])c1 (centres undefined)
IC50 (Steroidogenic factor 1): 35.8 µM (inactive) | IC50 [6]: 35.8 µM (inactive) | IC50 [7]: 35.8 µM (inactive)
